Laboratory results: the supplement of paper PMC10307832

The cell lines below were run with Cc1nc(NC(=O)N2CCC[C@H]2C(N)=O)sc1-c1ccnc(C(C)(C)C(F)(F)F)c1 [Alpelisib] + N=C(N)NC(=N)NCCc1ccccc1 [Phenformin] (partner 250 µM) (assay: relative viability (nuclei count vs DMSO), 5 days (fraction); higher = more cells survive). Settings: first compound 4 µM.
In short: (§1)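 Relative viability equals treated-well nuclei counts divided by vehicle-well nuclei counts. Counts came from 4× images of lung cancer cell lines grown in 1536-well plates for 5 days after pin-tool dosing on the day after seeding. Dosing used one drug alone or a fixed anchor-drug dose plus five library-drug doses (not always all listed) in √10 steps, and values are medians of duplicate plates.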

Cell Line	relative viability
NCI-H1792	0.0842
LC-2-ad	0.427
NCI-H2085	0.621
NCI-H727	0.215
NCI-H647	0.359
HARA	0.301
NCI-H3122	0.316
CAL-12T	0.494
LCLC-97TM1	0.19
NCI-H23	0.506
HCC-827	0.303
NCI-H2347	0.376
LXF-289	0.482
NCI-H1666	0.564
RERF-LC-KJ	0.33
NCI-H650	0.369
NCI-H322M	0.55
NCI-H596	0.329
201T	0.349
NCI-H441	0.45
HCC-78	0.428

What follows are cell lines tested with Cc1nc(NC(=O)N2CCC[C@H]2C(N)=O)sc1-c1ccnc(C(C)(C)C(F)(F)F)c1 [Alpelisib] + NC(=O)Nc1cc(-c2cccc(F)c2)sc1C(=O)N[C@H]1CCCNC1 [AZD7762] (partner 0.2 µM) in the same assay as above. Settings: first compound 0.04 µM.
In short: as §1

Cell Line	relative viability
NCI-H1915	0.688
NCI-H838	0.916
A-427	0.712
ABC-1	0.996
EKVX	0.868
NCI-H2087	1.39
NCI-H1734	0.604
LCLC-103H	0.72
LU99A	0.335
NCI-H460	0.542
HCC-15	1.23
EMC-BAC-2	1.1
NCI-H1792	0.59
LC-2-ad	0.812
NCI-H2085	0.946
NCI-H727	0.472
NCI-H647	0.586

Cell Line	relative viability
HARA	0.364
NCI-H3122	0.989
CAL-12T	0.7
LCLC-97TM1	0.165
NCI-H23	0.23
HCC-827	0.253
NCI-H2347	0.756
LXF-289	1.05
NCI-H1666	0.902
RERF-LC-KJ	0.871
NCI-H650	1.08
NCI-H322M	0.594
NCI-H596	0.895
201T	0.616
NCI-H441	1.28
HCC-78	0.726

Same assay, conditions: first compound 0.1265 µM

Cell Line	relative viability
NCI-H1915	0.713
NCI-H838	0.946
A-427	0.649
ABC-1	0.875
EKVX	0.662
NCI-H2087	1.3
NCI-H1734	0.556
LCLC-103H	0.872
LU99A	0.361
NCI-H460	0.638
HCC-15	1.35
EMC-BAC-2	1.05
NCI-H1792	0.534
LC-2-ad	0.874
NCI-H2085	0.781
NCI-H727	0.567
NCI-H647	0.322

Cell Line	relative viability
HARA	0.334
NCI-H3122	1.03
CAL-12T	0.593
LCLC-97TM1	0.305
NCI-H23	0.211
HCC-827	0.212
NCI-H2347	0.661
LXF-289	1.1
NCI-H1666	0.762
RERF-LC-KJ	0.99
NCI-H650	0.769
NCI-H322M	0.556
NCI-H596	1.05
201T	0.636
NCI-H441	1.14
HCC-78	0.515

Same assay, conditions: first compound 0.4 µM

Cell Line	relative viability
NCI-H1915	0.69
NCI-H838	1.02
A-427	0.72
ABC-1	1.2
EKVX	0.675
NCI-H2087	1.59
NCI-H1734	0.584
LCLC-103H	0.631
LU99A	0.408
NCI-H460	0.746
HCC-15	1.32
EMC-BAC-2	0.946
NCI-H1792	0.783
LC-2-ad	0.863
NCI-H2085	1.09
NCI-H727	0.625
NCI-H647	0.688

Cell Line	relative viability
HARA	0.398
NCI-H3122	0.978
CAL-12T	0.754
LCLC-97TM1	0.34
NCI-H23	0.396
HCC-827	0.209
NCI-H2347	0.815
LXF-289	1.21
NCI-H1666	1.03
RERF-LC-KJ	1.5
NCI-H650	0.931
NCI-H322M	0.47
NCI-H596	1.03
201T	0.546
NCI-H441	1.35
HCC-78	0.293

Same assay, conditions: first compound 1.265 µM

Cell Line	relative viability
NCI-H1915	0.676
NCI-H838	0.775
A-427	0.574
ABC-1	0.598
EKVX	0.636
NCI-H2087	1.22
NCI-H1734	0.397
LCLC-103H	0.61
LU99A	0.365
NCI-H460	0.513
HCC-15	1.05
EMC-BAC-2	0.832
NCI-H1792	0.465
LC-2-ad	0.684
NCI-H2085	0.944
NCI-H727	0.673
NCI-H647	0.393
HARA	0.249
NCI-H3122	0.693
CAL-12T	0.566
LCLC-97TM1	0.289
NCI-H23	0.154
HCC-827	0.199
